Key:
5-lipoxygenase [1] = biological target: T1, 5-lipoxygenase (Cavia porcellus, UniProt A0A286X958); test: inhibitory activity on free 5-lipoxygenase concentrated from peritoneal PMNs of the guinea-pig (5-HETE formation); type: biochemical; settings: 10^-5 mole/liter; guinea-pig 5-LO, 37° C.; read-out: In vitro % inhibitory activity on 5-HETE formation caused by free 5-LO
T1 construct: The 5-LO was concentrated in a known manner from PMNs of male Dunkin-Hartley guinea-pigs; endogenous in cells; host or cells: peritoneal PMNs of male Dunkin-Hartley guinea-pigs, homogenized; 10,000 x g supernatant used as enzyme solution
T1 sequence (A0A286X958 1-674): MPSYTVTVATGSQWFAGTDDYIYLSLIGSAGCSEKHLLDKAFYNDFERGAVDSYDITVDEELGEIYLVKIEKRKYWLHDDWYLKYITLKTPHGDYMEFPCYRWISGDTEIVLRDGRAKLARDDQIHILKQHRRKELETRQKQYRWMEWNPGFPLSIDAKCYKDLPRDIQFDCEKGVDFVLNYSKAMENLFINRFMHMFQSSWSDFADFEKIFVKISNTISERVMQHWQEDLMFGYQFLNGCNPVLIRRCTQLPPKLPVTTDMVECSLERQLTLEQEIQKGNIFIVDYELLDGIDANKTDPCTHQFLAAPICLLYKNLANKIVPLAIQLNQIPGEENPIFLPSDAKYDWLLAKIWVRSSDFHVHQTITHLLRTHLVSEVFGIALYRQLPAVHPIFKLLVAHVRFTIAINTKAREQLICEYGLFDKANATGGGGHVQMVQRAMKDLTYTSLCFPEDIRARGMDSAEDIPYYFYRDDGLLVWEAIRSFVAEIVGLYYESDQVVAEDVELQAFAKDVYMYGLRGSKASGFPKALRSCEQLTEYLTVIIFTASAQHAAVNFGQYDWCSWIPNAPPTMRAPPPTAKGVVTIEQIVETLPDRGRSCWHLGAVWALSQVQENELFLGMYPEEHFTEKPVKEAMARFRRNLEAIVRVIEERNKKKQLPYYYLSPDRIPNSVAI
Text: 4b. In vitro determination of inhibitory activity on 5-lipoxygenase concentrated from peritoneal PMNs of the guinea-pig.
An inhibition of 5-lipoxygenase can be caused by direct inhibitory action of the substances on the enzyme and/or by interference with the activation of the enzyme. While in test 4a the 5-lipoxygenase inhibition of the substances was investigated in rat PMN cells, in test 4b the inhibitory activity of the substances was investigated on free 5-LO concentrated from guinea-pig PMN cells according to the method of D. Aharony et al., J. Biol. Chem. 261 (1986), 11512-11519 (1986).
The 5-LO was concentrated in a known manner from PMNs of male Dunkin-Hartley guinea-pigs (body weight 400 to 500 g) as follows. 10 ml of a solution containing 27.9 g/l of sodium thioglycolate were injected i.p. into the animals in order to induce the PMN invasion as a result of this inflammatory stimulus. After 22 hours, the animals were sacrificed by lethal ether anaesthesia. 70 ml of HBSS without Ca^++ and Mg^++ ions and containing 0.2% by weight of sodium citrate were then injected into the abdominal cavity. The cell suspension (>80% of the cells are PMNs) was withdrawn from the abdominal cavity, filtered through a cheese-making filter cloth, and washed twice with a 50 mM potassium phosphate buffer solution of pH 7.4, which contained 0.5 mM ethylenediaminetetraacetic acid, 1% by weight of gelatine and 20 μM indomethacin. The cells were resuspended, and the PMN suspension containing 10^8 cells/ml was homogenized three times for 15 seconds each in an ice-bath in a homogenizer of the Labsonic™ type set at high speed. The resulting suspension was centrifuged at 4° C. (15 minutes at 10,000×g). The supernatant liquid was used for the investigation as a solution of the free 5-LO enzyme.
The experiments were carried out at 37° C. for 7 minutes using 0.625 ml samples of this enzyme solution. For the experiments, the enzyme solution (=equivalent of 2.5×10^7 cells), 0.5 mM glutathione, 1 mM ATP and 0.3 mM calcium chloride were added to test tubes. […] of the test substance were added to the samples dissolved in sufficient dimethylformamide such that the dimethylformamide concentration in each test tube is 0.5%. Only dimethylformamide was added to the control samples. After 2 minutes, the formation of 5-(S)-hydroxy-6,8,11,14-eicosatetraenoic acid (=[…]) was initiated by addition 10 μM arachidonic acid. After 5 minutes, the reaction was terminated by addition of 0.625 ml of a mixture of methyl acetate/methanol/0.2 m citric acid 15:2:0.5 v/v/v. 5-HETE was extracted twice using this solvent mixture. The 5-HETE-containing phases were combined and evaporated to dryness under a nitrogen atmosphere. The residue was taken up in a mixture of methanol/water/acetic acid 75:21:0.02 v/v/v having a pH of 5.7, and the solution was investigated for its content of 5-HETE by means of reverse phase HPLC. To accomplish this, a […] silanized silica gel column (Hichrom® ODS2, 250×4.6 mm) was employed as the adsorbent and a mixture of methanol/water/acetic acid 75:21:0.02 adjusted to pH 5.7 with ammonia and having a flow rate of 1 ml/min was used as the eluent. 5-HETE, which was eluted as a single peak after 20 minutes, was identified by comparison with standard solutions eluted at the same time and determined using a UV light detector at a wavelength of 235 nm. Quantitative determination was carried out by comparison of the peak area obtained with peak areas occurring in the calibrated standard solutions. From the 5-HETE contents of the samples determined, the inhibitory activity of the test substances was calculated in % inhibition of 5-HETE synthesis in comparison to the control samples containing no test substance.

5-lipoxygenase [2] = test: inhibition of 5-lipoxygenase activity in polymorphonuclear rat leucocytes (LTB4 formation); type: cell-based; settings: 10^-5 mol/l; 22° C.
Text: 4. In vitro determination of 5-lipoxygenase inhibition. 4a. In vitro determination of inhibition of 5-lipoxygenase activity in polymorphonuclear rat leucocytes. Arachidonic acid contained in cell membranes is released after activiation of the polymorphonuclear leucocytes (=PMN). During the course of this, under the action of the enzyme 5-lipoxygenase (=5-LO) arachidonic acid metabolites are synthesized which can be converted to leucotriene B4 (=LTB4) by LTA4 hydrolase. LTB4 is a principal metabolite of the arachidonic acid metabolism taking place on activation of the enzyme 5-LO by the inflammatory stimulus in the cell membrane. In in vitro systems, this metabolite is secreted from PMNs. […] To accomplish this, the content of LTB4 in a culture medium of rat peritoneal PMNs was determined after stimulation by calcimycin (=calcium-ionophore A23187) such as described by […] et al., Can. J. Physiol. Pharmacol. 67 (1989), 17. A cell suspension containing peritoneal PMNs of male Sprague-Dawley rats (body weight 200 to 250 g) was obtained in a known manner as follows: 6 ml of a solution containing 27.9 g/l of sodium thioglycolate were injected i.p. into the animals in order to induce the PMN invasion due to this inflammatory stimulus. After 22 hours, the animals were sacrificed by means of lethal ether anaesthesia. 20 ml of a Hank's salt solution (=Hank's Balanced Salt Solution=HBSS), but without Ca^++ and Mg^++ ions and with 0.2% by weight of sodium citrate, were then injected into the abdominal cavity. The suspension of accumulated cells was removed from the abdominal cavity and the cells were separated by centrifugation (10 minutes at 400×g). The cells were purified by repeated centrifugation in the presence of Ficoll-Paque®, (=metrizoic acid preparation, […], manufacturer Pharmacia), then washed twice with HBSS containing Ca^++ and Mg^++ ions and resuspended in HBSS containing Ca^ ++ and Mg^++ ions and buffered with 10 mM HEPES (=hydroxyethylpiperazinoethanesulfonic acid). In order to carry out the tests, samples of 0.7 ml of the PMN suspension (=0.5×10^6 cells) in each case were incubated for 15 minutes at 22° C. in plastic tubes containing 10 μM of the test substance in dimethylformamide or, as a control experiment, only containing dimethylformamide. The LTB4 synthesis was initiated in the samples by addition of calcimycin (final concentration 5 μm), and the samples were incubated for 10 minutes at 22° C. Only solvent was added to blank control samples. After 10 minutes, the reaction was terminated by addition of 0.3 ml of cold methanol. The samples were kept for 1 hour at 4° C. and then centrifuged (5 minutes at 10,000×g). The supernatant liquid was investigated to determine its LTB4 content by means of reverse phase high-pressure liquid chromatography (=reverse phase HPLC). […] The LTB4 was identified by comparison with authentic standard solutions eluting at the same time and determined at a wavelength of 270 nm. The LTB4 contents are determined from comparison with calibrated standard solutions, and from this the inhibitory activity of the test substances was calculated in % inhibition of the LTB4 synthesis in comparison with the control samples containing no test substance.

inhibition at 10 µM (5-lipoxygenase [1]) [%]	SMILES	In vitro inhibitory activity on LTB4 formation in rat PMNs stimulated by calcium ionophore A23187 (5-lipoxygenase [2]) [%]
95	Cc1ccnc(N2CCN(CCCC3Cn4c(-c5cc(C)c(O)c(C)c5)c(C)c5cccc(c54)O3)CC2)c1 (stereo not shown) [Example 11]	–
57	Cc1ccnc(N2CCN(CCCC3Cn4c(-c5ccc(O)cc5)c(C)c5cccc(c54)O3)CC2)c1 (stereo not shown) [Example 16]	60
30	Cc1ccnc(N2CCN(CCC3Cn4c(-c5ccc(O)cc5)c(C)c5cccc(c54)S3)CC2)c1 (stereo not shown) [Example 21]	42
55	COc1cc(-c2c(C)c3cccc4c3n2CC(CCN2CCN(c3ncccc3C)CC2)O4)ccc1O (stereo not shown) [Example 35]	79
65	Cc1c(-c2ccc(O)cc2)n2c3c(cccc13)OC(CCC(=O)N1CCN(c3ccccn3)CC1)C2 (stereo not shown) [Example 36]	89
100	COc1cc(-c2c(C)c3cccc4c3n2CC(CCC(=O)N2CCN(c3cc(C)ccn3)CC2)O4)ccc1O (stereo not shown) [Example 38]	97
99	Cc1ccnc(N2CCN(C(=O)CCC3Cn4c(-c5ccc(O)c(O)c5)c(C)c5cccc(c54)O3)CC2)c1 (stereo not shown) [Example 49]	88
70	Cc1cc(-c2c(C)c3cccc4c3n2CC(CCN2CCN(c3ccccn3)CC2)O4)cc(C)c1O (stereo not shown) [Example 59]	–
77	Cc1ccc(N2CCN(CCC3Cn4c(-c5cc(C)c(O)c(C)c5)c(C)c5cccc(c54)O3)CC2)nc1 (stereo not shown) [Example 62]	56
74	COc1cc(-c2c(C)c3cccc4c3n2CC(CCCCN2CCN(c3cc(C)ccn3)CC2)S4)cc(C)c1O (stereo not shown) [Example 64]	–

SMILES	inhibition at 10 µM (5-lipoxygenase [1]) [%]	In vitro inhibitory activity on LTB4 formation in rat PMNs stimulated by calcium ionophore A23187 (5-lipoxygenase [2]) [%]
Cc1cc(-c2c(C)c3cccc4c3n2CC(CCN2CCC(N(C)c3nccc(=O)[nH]3)CC2)O4)cc(C)c1O (stereo not shown) [Example 40]	56	82
